target: T1, human DGAT2 (hDGAT2) (Homo sapiens, UniProt Q96PD7); test: DGAT2 enzymatic activity assay (LC/MS/MS detection of 13C18-triolein, Sf-9 membrane prep); type: biochemical; details: hDGAT2 Sf-9 membrane, 25 μM diolein, 5 μM 13C oleoyl-CoA, rt
T1 construct: made in house; host or cells: Sf-9 insect cells (baculovirus infection); membrane fraction
T1 sequence (Q96PD7 1-388): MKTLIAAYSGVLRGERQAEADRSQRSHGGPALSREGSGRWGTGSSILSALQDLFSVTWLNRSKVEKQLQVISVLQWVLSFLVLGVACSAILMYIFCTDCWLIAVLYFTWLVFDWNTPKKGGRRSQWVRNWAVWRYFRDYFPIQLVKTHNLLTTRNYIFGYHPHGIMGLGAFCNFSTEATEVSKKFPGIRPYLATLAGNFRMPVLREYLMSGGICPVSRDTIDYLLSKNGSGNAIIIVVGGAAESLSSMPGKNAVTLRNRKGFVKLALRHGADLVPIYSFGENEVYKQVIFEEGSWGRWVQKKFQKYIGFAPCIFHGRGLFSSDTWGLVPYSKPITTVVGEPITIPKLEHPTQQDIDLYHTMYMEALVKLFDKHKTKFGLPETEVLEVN
Protocol: Sf-9 insect cells were maintained in Grace's insect cell culture medium with 10% heated-inactivated fetal bovine serum, 1% Pluronic F-68 and 0.14 μg/ml Kanamycine sulfate at 27° C. in a shaker incubator. After infection with untagged baculovirus expressing human DGAT2 (hDGAT2) at multiplicity of infection (MOI) 3 for 48 hours, cells were harvested. Cell pellets were suspended in buffer containing 10 mM Tris-HCl pH 7.5, 1 mM EDTA, 250 mM sucrose and Complete Protease Inhibitor Cocktail (Sigma Aldrich), and sonicated on ice. Cell debris were removed by centrifugation at 2000×g for 15 minutes. Membrane fractions were isolated by ultracentrifugation (100,000×g), resuspended in the same buffer, and frozen (−80° C.) for later use. The protein concentration was determined with the Pierce™ BCA Protein Assay Kit (Thermo Fisher Scientific). Expression of protein levels was analyzed by immunoblotting with rabbit anti-DGAT2 antibody (Abcam, ab102831) and donkey anti-rabbit IgG H&L Alexa Fluor® 647 (Abcam, ab150075) followed by detection using Typhoon FLA9000 (GE Healthcare).
LC/MS/MS analyses were performed using Thermal Fisher's LX4-TSQ Vantage system. This system consists of an Agilent binary high-performance liquid chromatography (HPLC) pumps and a TSQ Vantage triple quadrupole MS/MS instrument. For each sample, 2 μL samples from the top organic layer of in-plate liquid-liquid extraction were injected onto a Thermo Betabasic C4 column (2.1 mm×20 mm, 5 μm particle size). The samples were then eluted using the following conditions; mobile phase: Isopropanol: acetonitrile/10 mM ammonium formate=50/35/15 (v/v/v), flow rate: 0.8 mL/min, temperature: 25° C. Data was acquired in positive mode using a heated electrospray ionization (HESI) interface. The operational parameters for the TSQ Vantage MS/MS instrument were a spray voltage of 3000 V, capillary temperature of 280° C., vaporizer temperature 400° C., sheath gas 45 arbitrary unit, Aux gas 10 arbitrary units, S-lens 165 and collision gas 1.0 mTorr. […] (SRM) chromatograms of ^13C18-triolein (Q1: 920.8>Q3:621.3) and internal standard ^13C21-triolein (Q1: 923.8>Q3:617.3) were collected for 33 sec. The peak area was integrated by Xcalibur Quan software. The ratio between the ^13C18triolein generated in the reaction and spiked in internal standard ^13C21-triolein was used to generate percentage inhibition and IC50 values. Compound percentage inhibition was calculated by the following formula: Inhibition %=1−[(compound response−low control)/(high control−low control)]×100%. Potent compounds were titrated and IC50 were calculated by 4 parameter sigmoidal curve fitting formula.
DGAT2 activity was determined by measuring the amount of enzymatic product ^13C18-triolein (^13C-1,2,3-Tri(cis-9-octadecenoyl)glycerol) using the membrane prep mentioned above. The assay was carried out in ABgene 384-well assay plates in a final volume of 25 μL at rt. The assay mixture contained the following: assay buffer (100 mM Tris.Cl, pH 7.0, 20 mM MgCl2, 5% ethanol), 25 μM of diolein, 5 μM of ^13C oleoyl-CoA and 8 ng/μL of DGAT2 membrane.

IC50 | Compound
5.1 nM | CC1(NC(=O)c2ccc3c(c2)c(C(O)C2CC2)nn3-c2cccc(OC(F)F)c2)CS(=O)(=O)C1 (single isomer, unassigned) [Example 29a, 3-[cyclopropyl(hydroxy)methyl] - 1-[3-(difluoromethoxy)phenyl]-N-(3-methyl-1,1-dioxo-thietan-3-yl)indazole-5-carboxamide]
38 nM | CC(O)c1nn(-c2cccc(OC(F)F)c2)c2ncc(C(=O)NC3(C)CS(=O)(=O)C3)cc12 (single isomer, unassigned) [Example 38a, 1-(3-(difluoromethoxy)phenyl)-3-(l-hydroxyethyl)-N-(3-methyl-1,1-dioxidothietan-3-yl)-1H-pyrazolo[3,4-b]pyridine-5-carboxamide]
54 nM | CC(O)c1nn(-c2cccc(OC(F)F)c2)c2ncc(C(=O)NC3(C)CS(=O)(=O)C3)cc12 (single isomer, unassigned) [Example 38b, l-(3-(difluoromethoxy)phenyl)-3-(l-hydroxyethyl)-N-(3-methyl-1,1-dioxidothietan-3-yl)-1H-pyrazolo[3,4-b]pyridine-5-carboxamide]
46 nM | Cn1nccc1-c1nn(-c2cccc(OC(F)F)c2)c2ccc(C(=O)NC3(C)CS(=O)(=O)C3)cc12 [Example 1, 1-[3-(difluoromethoxy)phenyl]-N-(3-methyl-1,1-dioxo-thietan-3-yl)-3-(2-methylpyrazol-3-yl)indazole-5-carboxamide]

Continued, molecule first:

Compound | IC50
CCC(O)c1nn(-c2cccc(OC(F)F)c2)c2ccc(C(=O)NC3(C)CS(=O)(=O)C3)cc12 (racemic) [Example 28, 1-(3-(difluoromethoxy)phenyl)-3-(1-hydroxypropyl)-N-(3-methyl-1,1-dioxidothietan-3-yl)-1H-indazole-5-carboxamide] | 78 nM
CC1(NC(=O)c2ccc3c(c2)c(C(O)C(F)(F)F)nn3-c2cccc(OC(F)F)c2)CS(=O)(=O)C1 (racemic) [Example 30, 1-(3-(difluoromethoxy)phenyl)-N-(3-methyl-1,1-dioxidothietan-3-yl)-3-(2,2,2-trifluoro-1-hydroxyethyl)-1H-indazole-5-carboxamide] | 47 nM
CC1(NC(=O)c2ccc3c(c2)c(C(O)C(F)F)nn3-c2cccc(OC(F)F)c2)CS(=O)(=O)C1 (racemic) [Example 31] | 94 nM
CCC(O)c1nn(-c2cccc(OC(F)F)c2)c2ccc(C(=O)NC3(C)CS(=O)(=O)C3)cc12 (single isomer, unassigned) [Example 28a, 1-(3-(difluoromethoxy)phenyl)-3-(1-hydroxypropyl)-N-(3-methyl-1,1-dioxidothietan-3-yl)-1H-indazole-5-carboxamide] | 24 nM
CCC(O)c1nn(-c2cccc(OC(F)F)c2)c2ccc(C(=O)NC3(C)CS(=O)(=O)C3)cc12 (single isomer, unassigned) [Example 28b, 1-(3-(difluoromethoxy)phenyl)-3-(1-hydroxypropyl)-N-(3-methyl-1,1-dioxidothietan-3-yl)-1H-indazole-5-carboxamide] | 70 nM
CC1(NC(=O)c2ccc3c(c2)c(C(O)C2CC2)nn3-c2cccc(OC(F)F)c2)CS(=O)(=O)C1 (single isomer, unassigned) [Example 29b, 3-[cyclopropyl(hydroxy)methyl] - 1-[3-(difluoromethoxy)phenyl]-N-(3-methyl-1,1-dioxo-thietan-3-yl)indazole-5-carboxamide] | 205 nM
CC1(NC(=O)c2ccc3c(c2)c(C(O)C(F)(F)F)nn3-c2cccc(OC(F)F)c2)CS(=O)(=O)C1 (single isomer, unassigned) [Example 30a, 1-[3-(difluoromethoxy)phenyl]-N-(3-methyl-1,1-dioxo-thietan-3-yl)-3-(2,2,2-trifluoro-1-hydroxy-ethyl)indazole-5-carboxamide] | 84 nM
CC1(NC(=O)c2ccc3c(c2)c(C(O)C(F)(F)F)nn3-c2cccc(OC(F)F)c2)CS(=O)(=O)C1 (single isomer, unassigned) [Example 30b, 1-[3-(difluoromethoxy)phenyl]-N-(3-methyl-1,1-dioxo-thietan-3-yl)-3-(2,2,2-trifluoro-1-hydroxy-ethyl)indazole-5-carboxamide] | 113 nM
